Test results from patent US20150080475A1, “Memantine Protects Inflammation-Related Degeneration of Dopamine Neurons Through Inhibition of Over-Activated Microglia and Release of Neurotrophic Factors From Astroglia” (priority 2009, published 2015).

Columns and labels:
astrocyte, and micrglia = assay: BrdU cytogenesis test in rat primary midbrain neuron-glia cultures; format: cell-based; conditions: 10 μM MMT, 24 hours
Procedure: Rat primary mesencephalic neuron-glia cultures seeded in a 24-well culture plate at density of 5×10^5 per well were treated with 10 μM MMT or its vehicle, and simultaneously with 1 μl Brdu seven days after seeding. 24 hours later, the cultures was fixed with 3.7% of PDF for GFAF, iba-1, and DAPI staining.
In addition to the pre-treatment experiments, similar studies using post-treatment designs were conducted to determine the efficacy of MMT. In these experiments, neuron-glia cultures were either treated with MMT (10 μM) and LPS (2.5 ng/ml) at the same time, or MMT was added 30, 60, 120 or 180 min after the addition of LPS. One week later, DA uptake of the culture was assayed.

DA neurons [1] = assay: [3H] DA uptake, LPS-induced neurotoxicity in rat mesencephalic neuron-glia cultures; format: cell-based
Procedure: (§1) Rat and mouse ventral mesencephalic neuron-glia cultures were prepared using a described protocol (Gao H M, Hong J S, Zhang W Q, Liu B (2002) Distinct Role for Microglia in Rotenone-Induced Degeneration of Dopaminergic Neurons. J Neurosci 22(3):782-790). Briefly, midbrain tissues were dissected from day 14 Fisher 344 rat embryos or day 14 mouse embryos (PHOX^+/+ or PHOX^−/−). Cells were dissociated via gentle mechanical trituration in minimum essential medium (MEM) and immediately seeded (5×10^5/well) in poly D-lysine (20 μg/mL) precoated 24-well plates. Cells were seeded in maintenance media and treated with the treatment media described previously (Gao H M, Hong J S, Zhang W Q, Liu B (2002) Distinct Role for Microglia in Rotenone-Induced Degeneration of Dopaminergic Neurons. J Neurosci 22(3):782-790). Three days after seeding, the cells were replenished with 500 μL of fresh maintenance media. Cultures were exposed 7 days after seeding. At the time of treatment, the composition of the cultures was approximately 48% astrocytes, 11% microglia, 40% neurons, and 1 to 1.5% TH-immunoreactive (ir) neurons.
(§2) Cells were incubated in Krebs-Ringer buffer (16 mM NaH2PO4, 1.2 mM MgSO4, 1.3 mM EDTA, […], for 21 min at 37° C. with 1 μM [^3H] DA. Nonspecific uptake was blocked for DA with 10 μM mazindole. After incubation, cells were washed three times with 1 mL/well of ice-cold Krebs-Ringer buffer. Cells were then lysed with 0.5 mL/well of 1 N NaOH and mixed with 15 mL of scintillation fluid. Radioactivity was measured on a scintillation counter, where specific [^3H] DA uptake was calculated by subtracting the mazindole.
(§3) Rat mesencephalic neuron-glia cultures were pretreated for 30 min with vehicle or 1, 3, 10 μM MMT before adding LPS (2.5 to 5 ng/ml) to the cultures. One week later, the neurotoxic effect of LPS on DA neurons were assessed by both [H^3] DA uptake, which measures the functional capacity of high affinity uptake of DA cells and cell count of tyrosine hydroxylase-positive (TH-ir) cells. [H^3] […]

DA neurons [2] = assay: [3H] DA uptake, MMT alone in rat mesencephalic neuron-glia cultures (neurotrophic effect); format: cell-based; conditions: for increase of DA uptake capacity by MMT alone: one week
Procedure: as §1, §2, §3

microglia = assay: Intracellular reactive oxygen species assay (DCFH oxidation) after LPS; format: cell-based; conditions: 2 h after LPS
Procedure: The production of intracellular reactive oxygen species (ROS) was measured by DCFH oxidation. The DCFH-DA reagent passively enters cell where it is de-acetylated by esterase to nonfluorescent DCFH. Inside the cell, DCFH reacts with ROS to form DCF, the fluorescent product. For this assay, 10 mM DCFH-DA was dissolved in methanol and was diluted 500-fold in HBSS to give a 20 μM concentration of DCFH-DA. Enriched-microglia cultures seeded (5×10^4) in 96-well plates were then exposed to DCFH-DA for 1 h, followed by treatment with HBSS containing several concentrations of LPS or substance P for 2 h. After incubation, the fluorescence was read at the 485 nm excitation and 530 nm emission on a fluorescence plate reader. […] To calculate the amount of intracellular ROS produced, the mean control treatment was subtracted from the mean treatment group.
(§4) Neuron-glia cultures were pretreated for 30 min with MMT (3 μM) or vehicle before LPS stimulation. […] Production of superoxide (30 min after LPS) and iROS (2 h after LPS) was decreased by MMT treatment (FIGS. 6A and 6B). […] The production of PGE2 in cultures pretreated with 3 and 10 μM MMT decreased by 23% and 27% respectively (FIG. 6E).

TNF-α = TNF-α ELISA after LPS; format: cell-based; conditions: 4 h after LPS treatment
Procedure: The production of TNF-α was measured with a commercial ELISA kit from R&D Systems. The PGE2 release was measured with a commercial ELISA kit from Cayman Chemical Company.
as §4

NMDA receptor = conditions: in vitro; cited from earlier work
DA neurons [3] = assay: Neurotrophic effect in neuron-enriched, microglia-added and microglia-depleted cultures (DA uptake); format: cell-based, rat
Procedure: Astrocytes, not micrglia, contribute to the neurotrophic effect of MMT. Neuron-enriched cultures were treated with vehicle and 1-10 μM MMT (FIG. 10A); 10% (5×10^4/well) of microglia were added back to neuron-enriched cultures and treated with 10 μM MMT (FIG. 10B); Depleted microglia cultures were treated with 10 μM MMT (FIG. 10C). ┌^3H┘ DA uptake was assayed 7 days after treatment. Values are mean±SEM of three independent experiments. *p<0.05, compared with corresponding vehicle-treated control cultures.
In addition to neuroprotection against LPS-induced neurotoxicity, MMT is found to have high potency of neurotrophic effect on DA neurons in rat primary mesencephalic neuron-glia cultures.
Mesencephalic neuron-glia cultures were seeded (5×10^5/well) in 24 well plates precoated with poly D-lysine. Thirty-six hours postseeding, 5-10 μM cytosine β-D-arabinofuranoside was added to the culture. After 2 days, the cytosine β-D-arabinofuranoside was removed and replaced with fresh media. Neuron-enriched cultures are 98% pure, as indicated by ICC staining with OX-42 and GFAP antibodies. Neuron-enriched cultures were treated 7 days post-seeding. For microglia add-back cultures, the microglia were plated on top of the neuron-enriched culture at 6 days postseeding, resulting in the addition of either 10% (500 μL of 1×10^5) or 20% (500 μL of 2×10^5) microglia. Cells were treated 7 days after the initial seeding of the neuron-enriched cultures.

## CC12CC3CC(C)(C1)CC(N)(C3)C2.Cl [MMT, 1-amino-3,5-dimethyladamantane hydrochloride]
astrocyte, and micrglia
  proliferation of astrocyte and microglia compared with control: does not induce more proliferation
DA neurons [1]; MMT 10 μM, LPS 2.5 ng/ml, post-treatment
  time of MMT addition after LPS still giving significant neuroprotection (DA uptake): up to 120 min
DA neurons [1]; neuron-enriched cultures
  effect on LPS-induced decrease in DA uptake: not in neuron-enriched cultures
DA neurons [1]; pretreated 30 min with 1, 3, 10 μM MMT, neuron-glia cultures, dose-dependent
  effect on LPS-induced decrease in DA uptake: significantly attenuated the LPS-induced decrease in DA uptake
DA neurons [2]; 3 μM MMT
  increase of DA uptake capacity by MMT alone: 30%
DA neurons [2]; 10 μM MMT
  increase of DA uptake capacity by MMT alone: 80%
DA neurons [2]; MMT alone, rat primary midbrain neuron-glia cultures
  effect against spontaneous DA neurons death: dose-dependent surviving-promoting effects
microglia
  production of iROS: decreased
TNF-α
  release of TNF-α: reduced
NMDA receptor
  concentration of memantine on NMDA receptor blocking: about 10 μM
DA neurons [3]; 10% of microglia added back to neuron-enriched cultures
  neurotrophic effect on DA neurons: not microglia-added cultures
DA neurons [3]; microglia-depleted neuron/glia culture
  neurotrophic effect on DA neurons: neurotrophic in microglia-depleted neuron/glia culture
DA neurons [3]; neuron-enriched cultures
  neurotrophic effect on DA neurons: failed to show any protective effect
